Results taken from patent US11649246B2, “Salts of 4-amino-N-(l-((3-chloro-2-fluorophenyl)amino)-6-methylisoquinolin-5-yl)thieno[3,2-D]pyrimidine-7-carboxamide, and crystalline forms thereof” (Hanmi Pharm. Co., Ltd., priority 2017, dated 2023).

Key:
[1] = Stress stability test at 60° C.; format: physicochemical
Experimental: In order to compare physicochemical stability among the crystalline form prepared in Example 3 (crystalline Formula (I) bis-hydrochloride Form I) and 16 (Formula (I) crystalline free base), and the amorphous form prepared in Comparative Example 1, a stress stability test was conducted by storing samples at 60° C., for different periods of time up to 4 weeks.

[2] = Long-term stability at 20° C. to 30° C., 60% relative humidity, protection from light; format: physicochemical; conditions: 60% RH
Experimental: The stability of crystalline Formula (I) bis-hydrochloride Form I was evaluated at 3 months, 6 months, 9 months, 12 months, 18 months and 24 under conditions of 20° C. to 30° C. at 60% relative humidity and protection from light. Stability criteria included the following. At each interval from 3 to 24 months the crystalline Formula (I) bis-hydrochloride Form I appeared as a pale brown to off-white powder. Identification was performed by IR, PXRD and HPLC methods as described elsewhere herein with results reported as pass/fail. Purity was determined by HPLC with known impurities at relative retention times (“RRT”) of 1.1, 1.7 and 2.1. The results are shown in Table 22 where “Init” refers to initial, “Iden” refers to identification, “Imp” refers to impurity, “A.U.I.” refers to any unspecified impurity, “T.U.I.” refers to total unspecified impurity, “T.I.” refers to total impurities, and “N.D.” refers to not detected. The PXRD results at initial, 6 months, 12 months and 24 months are depicted in FIG. 33.

**Q.** Which “Purity(%) (A % by HPLC)” value ([1]; 2 weeks) does the source give for `Cc1ccc2c(Nc3cccc(Cl)c3F)nccc2c1NC(=O)c1csc2c(N)ncnc12` [Example 3, 4-amino-N-(1-((3-chloro-2-fluorophenyl)amino)-6-methylisoquinolin-5-yl)thieno[3,2-d]pyrimidine-7-carboxamide] here?
**A.** 99.8%

**Q.** What about the “Total impurities(%) (A % by HPLC)” value ([1]; 2 weeks) of the same compound?
**A.** 0.16%

**Q.** And the “Purity(%) (A % by HPLC)” value ([1]; 4 weeks)?
**A.** 99.8%

**Q.** And the “Total impurities(%) (A % by HPLC)” value ([1]; 4 weeks)?
**A.** 0.23%

**Q.** What about the “Purity(%) (A % by HPLC)” value ([1]; 1 day) of the same compound?
**A.** 99.8%

**Q.** What about the “Total impurities(%) (A % by HPLC)” value ([1]; 1 day) of the same compound?
**A.** 0.17%

**Q.** What about the “Purity(%) (A % by HPLC)” value ([1]; 3 days) of the same compound?
**A.** 99.8%

**Q.** What about the “Total impurities(%) (A % by HPLC)” value ([1]; 3 days) of the same compound?
**A.** 0.15%

**Q.** And the “Purity(%) (A % by HPLC)” value ([1]; 7 days)?
**A.** 99.8%

**Q.** And the “Total impurities(%) (A % by HPLC)” value ([1]; 7 days)?
**A.** 0.19%

**Q.** What about the “Purity(%) (A % by HPLC)” value ([1]; Initial) of the same compound?
**A.** 99.8%

**Q.** And the “Total impurities(%) (A % by HPLC)” value ([1]; Initial)?
**A.** 0.17%

**Q.** And the “physicochemical stability (summary in words)” value ([1]; up to 4 weeks, listed as crystalline form (Form I) of the dihydrochloride)?
**A.** remarkably superior stability over the amorphous form

**Q.** And the “A.U.I. (any unspecified impurity)” value ([2]; 3 mo)?
**A.** 0.03%

**Q.** What about the “Identity HPLC” value ([2]; 3 mo) of the same compound?
**A.** pass

**Q.** And the “Imp 1” value ([2]; 3 mo)?
**A.** 0.02%

**Q.** What about the “Imp RRT 1.7” value ([2]; 3 mo) of the same compound?
**A.** 0.08%

**Q.** And the Purity ([2]; 3 mo)?
**A.** 99.8%

**Q.** What about the “T.I. (total impurities)” value ([2]; 3 mo) of the same compound?
**A.** 0.15%

**Q.** And the “T.U.I (total unspecified impurity)” value ([2]; 3 mo)?
**A.** 0.05%

**Q.** And the “A.U.I. (any unspecified impurity)” value ([2]; 6 mo)?
**A.** 0.03%

**Q.** What about the “Identity HPLC” value ([2]; 6 mo) of the same compound?
**A.** pass

**Q.** What about the “Identity IR” value ([2]; 6 mo) of the same compound?
**A.** pass

**Q.** And the “Identity PXRD” value ([2]; 6 mo)?
**A.** pass

**Q.** What about the “Imp 1” value ([2]; 6 mo) of the same compound?
**A.** 0.03%

**Q.** What about the “Imp RRT 1.7” value ([2]; 6 mo) of the same compound?
**A.** 0.08%

**Q.** And the Purity ([2]; 6 mo)?
**A.** 99.8%

**Q.** And the “T.I. (total impurities)” value ([2]; 6 mo)?
**A.** 0.16%

**Q.** And the “T.U.I (total unspecified impurity)” value ([2]; 6 mo)?
**A.** 0.05%

**Q.** What about the “A.U.I. (any unspecified impurity)” value ([2]; 9 mo) of the same compound?
**A.** 0.03%

**Q.** What about the “Identity HPLC” value ([2]; 9 mo) of the same compound?
**A.** pass

**Q.** And the “Imp 1” value ([2]; 9 mo)?
**A.** 0.02%

**Q.** What about the “Imp RRT 1.7” value ([2]; 9 mo) of the same compound?
**A.** 0.08%

**Q.** And the Purity ([2]; 9 mo)?
**A.** 99.8%

**Q.** What about the “T.I. (total impurities)” value ([2]; 9 mo) of the same compound?
**A.** 0.16%

**Q.** What about the “T.U.I (total unspecified impurity)” value ([2]; 9 mo) of the same compound?
**A.** 0.05%

**Q.** And the “A.U.I. (any unspecified impurity)” value ([2]; 12 mo)?
**A.** 0.06%

**Q.** What about the “Identity HPLC” value ([2]; 12 mo) of the same compound?
**A.** pass

**Q.** And the “Identity IR” value ([2]; 12 mo)?
**A.** Pass

**Q.** What about the “Identity PXRD” value ([2]; 12 mo) of the same compound?
**A.** Pass

**Q.** And the “Imp 1” value ([2]; 12 mo)?
**A.** 0.02%

**Q.** What about the “Imp RRT 1.7” value ([2]; 12 mo) of the same compound?
**A.** 0.02%

**Q.** And the Purity ([2]; 12 mo)?
**A.** 99.8%

**Q.** And the “T.I. (total impurities)” value ([2]; 12 mo)?
**A.** 0.14%

**Q.** And the “T.U.I (total unspecified impurity)” value ([2]; 12 mo)?
**A.** 0.09%

**Q.** And the “A.U.I. (any unspecified impurity)” value ([2]; 18 mo)?
**A.** 0.06%

**Q.** And the “Identity HPLC” value ([2]; 18 mo)?
**A.** pass

**Q.** What about the “Imp 1” value ([2]; 18 mo) of the same compound?
**A.** 0.02%

**Q.** And the “Imp RRT 1.7” value ([2]; 18 mo)?
**A.** 0.02%

**Q.** What about the Purity ([2]; 18 mo) of the same compound?
**A.** 99.9%

**Q.** What about the “T.I. (total impurities)” value ([2]; 18 mo) of the same compound?
**A.** 0.13%

**Q.** What about the “T.U.I (total unspecified impurity)” value ([2]; 18 mo) of the same compound?
**A.** 0.09%

**Q.** What about the “A.U.I. (any unspecified impurity)” value ([2]; 24 mo) of the same compound?
**A.** 0.06%

**Q.** And the “Identity HPLC” value ([2]; 24 mo)?
**A.** pass

**Q.** And the “Imp 1” value ([2]; 24 mo)?
**A.** 0.02%

**Q.** What about the “Imp RRT 1.7” value ([2]; 24 mo) of the same compound?
**A.** 0.02%

**Q.** What about the Purity ([2]; 24 mo) of the same compound?
**A.** 99.8%

**Q.** And the “T.I. (total impurities)” value ([2]; 24 mo)?
**A.** 0.15%

**Q.** And the “T.U.I (total unspecified impurity)” value ([2]; 24 mo)?
**A.** 0.11%

**Q.** And the “A.U.I. (any unspecified impurity)” value ([2]; Init)?
**A.** 0.04%

**Q.** And the “Identity HPLC” value ([2]; Init)?
**A.** pass

**Q.** And the “Identity IR” value ([2]; Init)?
**A.** pass

**Q.** And the “Identity PXRD” value ([2]; Init)?
**A.** pass

**Q.** And the “Imp 1” value ([2]; Init)?
**A.** 0.01%

**Q.** And the “Imp RRT 1.7” value ([2]; Init)?
**A.** 0.08%

**Q.** What about the Purity ([2]; Init) of the same compound?
**A.** 99.9%

**Q.** What about the “T.I. (total impurities)” value ([2]; Init) of the same compound?
**A.** 0.14%

**Q.** What about the “T.U.I (total unspecified impurity)” value ([2]; Init) of the same compound?
**A.** 0.05%
